According to PubChem BioAssay (NCI):
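Abbreviation: GI50, concentration required for 50% inhibition of growth. TGI denotes the concentration required for complete inhibition of growth.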

What was measured:
Test in all cases: NCI anticancer screen, dose series, 384-well format
RPMI-8226 leukemia = tested on: RPMI-8226 leukemia
CAKI-1 renal = tested on: CAKI-1 renal
SK-MEL-28 melanoma = tested on: SK-MEL-28 melanoma
UACC-257 melanoma = tested on: UACC-257 melanoma
OVCAR-8 ovarian = tested on: OVCAR-8 ovarian
SK-OV-3 ovarian = tested on: SK-OV-3 ovarian
786-0 renal = tested on: 786-0 renal
NCI-H226 lung = tested on: NCI-H226 lung
NCI/ADR-RES ovarian = tested on: NCI/ADR-RES ovarian
HL-60(TB) leukemia = tested on: HL-60(TB) leukemia
NCI-H322M lung = tested on: NCI-H322M lung
OVCAR-3 ovarian = tested on: OVCAR-3 ovarian
ACHN renal = tested on: ACHN renal
DU-145 prostate = tested on: DU-145 prostate
HOP-92 NSCLC = tested on: HOP-92 NSCLC
M14 melanoma = tested on: M14 melanoma
HCT-15 colon = tested on: HCT-15 colon
MDA-MB-468 breast = tested on: MDA-MB-468 breast
KM12 colon = tested on: KM12 colon
CCRF-CEM leukemia = tested on: CCRF-CEM leukemia
SF-295 CNS = tested on: SF-295 CNS
BT-549 breast = tested on: BT-549 breast
HS 578T breast = tested on: HS 578T breast
SNB-19 CNS = tested on: SNB-19 CNS
A498 renal = tested on: A498 renal
MALME-3M melanoma = tested on: MALME-3M melanoma
EKVX NSCLC = tested on: EKVX NSCLC
OVCAR-5 ovarian = tested on: OVCAR-5 ovarian
HT29 colon = tested on: HT29 colon
IGROV1 ovarian = tested on: IGROV1 ovarian
U251 glioblastoma = tested on: U251 glioblastoma
NCI-H460 NSCLC = tested on: NCI-H460 NSCLC
RXF 393 renal = tested on: RXF 393 renal
SK-MEL-2 melanoma = tested on: SK-MEL-2 melanoma
SK-MEL-5 melanoma = tested on: SK-MEL-5 melanoma
SN12C renal = tested on: SN12C renal
SF-268 CNS = tested on: SF-268 CNS
OVCAR-4 ovarian = tested on: OVCAR-4 ovarian
A549 NSCLC = tested on: A549 NSCLC
UACC-62 melanoma = tested on: UACC-62 melanoma
MDA-MB-231 breast = tested on: MDA-MB-231 breast
MCF7 breast = tested on: MCF7 breast
T-47D breast = tested on: T-47D breast
SF-539 CNS = tested on: SF-539 CNS
COLO 205 colon = tested on: COLO 205 colon
PC-3 prostate = tested on: PC-3 prostate
TK-10 renal = tested on: TK-10 renal
HCC-2998 colon = tested on: HCC-2998 colon
SR leukemia = tested on: SR leukemia
SW-620 colon = tested on: SW-620 colon
MOLT-4 leukemia = tested on: MOLT-4 leukemia
MDA-MB-435 melanoma = tested on: MDA-MB-435 melanoma
HOP-62 NSCLC = tested on: HOP-62 NSCLC
NCI-H522 lung = tested on: NCI-H522 lung
NCI-H23 lung = tested on: NCI-H23 lung
K-562 leukemia = tested on: K-562 leukemia
SNB-75 CNS = tested on: SNB-75 CNS
UO-31 renal = tested on: UO-31 renal
HCT-116 colon = tested on: HCT-116 colon
LOX IMVI melanoma = tested on: LOX IMVI melanoma

## Cn1cc(C[C@@H](N)C(=O)O)c2ccccc21
RPMI-8226 leukemia
  GI50: > 100 µM
  TGI: > 100 µM
CAKI-1 renal
  GI50: > 100 µM
  TGI: > 100 µM
SK-MEL-28 melanoma
  GI50: > 100 µM
  TGI: > 100 µM
UACC-257 melanoma
  GI50: > 100 µM
  TGI: > 100 µM
OVCAR-8 ovarian
  GI50: > 100 µM
  TGI: > 100 µM
SK-OV-3 ovarian
  GI50: > 100 µM
  TGI: > 100 µM
786-0 renal
  GI50: > 100 µM
  TGI: > 100 µM
NCI-H226 lung
  GI50: > 100 µM
  TGI: > 100 µM
NCI/ADR-RES ovarian
  GI50: > 100 µM
  TGI: > 100 µM
HL-60(TB) leukemia
  GI50: > 100 µM
  TGI: > 100 µM
NCI-H322M lung
  GI50: > 100 µM
  TGI: > 100 µM
OVCAR-3 ovarian
  GI50: > 100 µM
  TGI: > 100 µM
ACHN renal
  GI50: > 100 µM
  TGI: > 100 µM
DU-145 prostate
  GI50: > 100 µM
  TGI: > 100 µM
HOP-92 NSCLC
  GI50: > 100 µM
  TGI: > 100 µM
M14 melanoma
  GI50: > 100 µM
  TGI: > 100 µM
HCT-15 colon
  GI50: > 100 µM
  TGI: > 100 µM
MDA-MB-468 breast
  GI50: > 100 µM
  TGI: > 100 µM
KM12 colon
  GI50: > 100 µM
  TGI: > 100 µM
CCRF-CEM leukemia
  GI50: > 100 µM
  TGI: > 100 µM
SF-295 CNS
  GI50: > 100 µM
  TGI: > 100 µM
BT-549 breast
  GI50: > 100 µM
  TGI: > 100 µM
HS 578T breast
  GI50: > 100 µM
  TGI: > 100 µM
SNB-19 CNS
  GI50: > 100 µM
  TGI: > 100 µM
A498 renal
  GI50: > 100 µM
  TGI: > 100 µM
MALME-3M melanoma
  GI50: > 100 µM
  TGI: > 100 µM
EKVX NSCLC
  GI50: > 100 µM
  TGI: > 100 µM
OVCAR-5 ovarian
  GI50: > 100 µM
  TGI: > 100 µM
HT29 colon
  GI50: > 100 µM
  TGI: > 100 µM
IGROV1 ovarian
  GI50: > 100 µM
  TGI: > 100 µM
U251 glioblastoma
  GI50: > 100 µM
  TGI: > 100 µM
NCI-H460 NSCLC
  GI50: > 100 µM
  TGI: > 100 µM
RXF 393 renal
  GI50: > 100 µM
  TGI: > 100 µM
SK-MEL-2 melanoma
  GI50: > 100 µM
  TGI: > 100 µM
SK-MEL-5 melanoma
  GI50: > 100 µM
  TGI: > 100 µM
SN12C renal
  GI50: > 100 µM
  TGI: > 100 µM
SF-268 CNS
  GI50: > 100 µM
  TGI: > 100 µM
OVCAR-4 ovarian
  GI50: > 100 µM
  TGI: > 100 µM
A549 NSCLC
  GI50: > 100 µM
  TGI: > 100 µM
UACC-62 melanoma
  GI50: > 100 µM
  TGI: > 100 µM
MDA-MB-231 breast
  GI50: > 100 µM
  TGI: > 100 µM
MCF7 breast
  GI50: > 100 µM
  TGI: > 100 µM
T-47D breast
  GI50: > 100 µM
  TGI: > 100 µM
SF-539 CNS
  GI50: > 100 µM
  TGI: > 100 µM
COLO 205 colon
  GI50: > 100 µM
  TGI: > 100 µM
PC-3 prostate
  GI50: > 100 µM
  TGI: > 100 µM
TK-10 renal
  GI50: > 100 µM
  TGI: > 100 µM
HCC-2998 colon
  GI50: > 100 µM
  TGI: > 100 µM
SR leukemia
  GI50: > 100 µM
  TGI: > 100 µM
SW-620 colon
  GI50: > 100 µM
  TGI: > 100 µM
MOLT-4 leukemia
  GI50: > 100 µM
  TGI: > 100 µM
MDA-MB-435 melanoma
  GI50: > 100 µM
  TGI: > 100 µM
HOP-62 NSCLC
  GI50: > 100 µM
  TGI: > 100 µM
NCI-H522 lung
  GI50: > 100 µM
  TGI: > 100 µM
NCI-H23 lung
  GI50: > 100 µM
  TGI: > 100 µM

## CC[C@H](C)n1cc(C)c2c(C(=O)NCc3c(C)cc(C)[nH]c3=O)cc(-c3ccc(N4CCNCC4)nc3)cc21
K-562 leukemia
  GI50: 1.48 µM
  TGI: 2.81 µM
RPMI-8226 leukemia
  GI50: 1.39 µM
  TGI: 2.7 µM
CAKI-1 renal
  GI50: 1.76 µM
  TGI: 3.17 µM
SNB-75 CNS
  GI50: 1.35 µM
  TGI: 2.65 µM
SK-MEL-28 melanoma
  GI50: 2.15 µM
  TGI: 3.6 µM
UACC-257 melanoma
  GI50: 1.63 µM
  TGI: 2.99 µM
OVCAR-8 ovarian
  GI50: 1.81 µM
  TGI: 3.34 µM
SK-OV-3 ovarian
  GI50: 1.86 µM
  TGI: 3.3 µM
786-0 renal
  GI50: 1.71 µM
  TGI: 3.1 µM
NCI-H226 lung
  GI50: 3.76 µM
  TGI: 14.5 µM
NCI/ADR-RES ovarian
  GI50: 17.7 µM
  TGI: 31.6 µM
HL-60(TB) leukemia
  GI50: 2.03 µM
  TGI: 3.47 µM
NCI-H322M lung
  GI50: 1.96 µM
  TGI: 4.07 µM
OVCAR-3 ovarian
  GI50: 2.25 µM
  TGI: 4.39 µM
ACHN renal
  GI50: 4.23 µM
  TGI: 15.6 µM
DU-145 prostate
  GI50: 3.83 µM
  TGI: 12.1 µM
HOP-92 NSCLC
  GI50: 1.83 µM
  TGI: 3.25 µM
UO-31 renal
  GI50: 13.1 µM
  TGI: 25.8 µM
M14 melanoma
  GI50: 1.75 µM
  TGI: 3.14 µM
HCT-15 colon
  GI50: 1.86 µM
  TGI: 3.48 µM
MDA-MB-468 breast
  GI50: 1.46 µM
  TGI: 2.79 µM
KM12 colon
  GI50: 1.79 µM
  TGI: 3.32 µM
CCRF-CEM leukemia
  GI50: 1.53 µM
  TGI: 2.87 µM
SF-295 CNS
  GI50: 1.87 µM
  TGI: 3.32 µM
BT-549 breast
  GI50: 1.67 µM
  TGI: 3.05 µM
HS 578T breast
  GI50: 1.41 µM
  TGI: 2.71 µM
SNB-19 CNS
  GI50: 2.11 µM
  TGI: 3.75 µM
A498 renal
  GI50: 1.94 µM
  TGI: 3.43 µM
MALME-3M melanoma
  GI50: 1.61 µM
  TGI: 2.97 µM
EKVX NSCLC
  GI50: 1.83 µM
  TGI: 3.49 µM
OVCAR-5 ovarian
  GI50: 2.62 µM
  TGI: 6.44 µM
HT29 colon
  GI50: 1.68 µM
  TGI: 3.11 µM
IGROV1 ovarian
  GI50: 1.54 µM
  TGI: 3.67 µM
U251 glioblastoma
  GI50: 1.83 µM
  TGI: 3.25 µM
NCI-H460 NSCLC
  GI50: 1.83 µM
  TGI: 3.24 µM
RXF 393 renal
  GI50: 1.73 µM
  TGI: 3.14 µM
HCT-116 colon
  GI50: 1.79 µM
  TGI: 3.23 µM
SK-MEL-5 melanoma
  GI50: 1.63 µM
  TGI: 2.99 µM
SN12C renal
  GI50: 1.78 µM
  TGI: 3.49 µM
SF-268 CNS
  GI50: 1.62 µM
  TGI: 2.98 µM
OVCAR-4 ovarian
  GI50: 3.58 µM
  TGI: 10.8 µM
A549 NSCLC
  GI50: 1.96 µM
  TGI: 3.92 µM
UACC-62 melanoma
  GI50: 1.57 µM
  TGI: 2.92 µM
LOX IMVI melanoma
  GI50: 1.64 µM
  TGI: 3.02 µM
MDA-MB-231 breast
  GI50: 1.65 µM
  TGI: 3.06 µM
MCF7 breast
  GI50: 1.52 µM
  TGI: 2.89 µM
T-47D breast
  GI50: 1.47 µM
  TGI: 2.82 µM
SF-539 CNS
  GI50: 1.6 µM
  TGI: 2.96 µM
COLO 205 colon
  GI50: 1.71 µM
  TGI: 3.1 µM
PC-3 prostate
  GI50: 3.23 µM
  TGI: 8.54 µM
TK-10 renal
  GI50: 1.91 µM
  TGI: 3.64 µM
HCC-2998 colon
  GI50: 1.6 µM
  TGI: 2.98 µM
SW-620 colon
  GI50: 1.74 µM
  TGI: 3.12 µM
MOLT-4 leukemia
  GI50: 1.63 µM
  TGI: 2.99 µM
MDA-MB-435 melanoma
  GI50: 2.07 µM
  TGI: 3.52 µM
HOP-62 NSCLC
  GI50: 1.64 µM
  TGI: 3.02 µM
NCI-H522 lung
  GI50: 1.86 µM
  TGI: 3.27 µM
NCI-H23 lung
  GI50: 2.89 µM
  TGI: 7.44 µM
